Laboratory results from ChEMBL document CHEMBL3632524, “3-(2,6-Dichloro-benzyloxy)-11-oxo-olean-12-ene-29-oic acid, a semisynthetic derivative of glycyrrhetic acid: synthesis, antiproliferative, apoptotic and anti-angiogenesis activity” (Medchemcomm, 2015).
Calls of active or inactive are those of the source. The calls are words filed in the database; no cut-off is given here.

Experiments:
PC-3 [1] = assay: Cell cycle arrest in human PC3 cells assessed as accumulation at G1 phase at 5 uM after 24 hrs by propidium iodide based flow cytometry (reference value: 50%); type: functional
PC-3 [2] = assay: Antiproliferative activity against human PC3 cells assessed as cell viability after 24 hrs by MTT assay; type: functional, cell-based; details: PC-3, 24 h
PC-3 [3] = assay: Cell cycle arrest in human PC3 cells assessed as accumulation at S phase at 5 uM after 24 hrs by propidium iodide based flow cytometry (reference value: 30%); type: functional
PC-3 [4] = assay: Cell cycle arrest in human PC3 cells assessed as accumulation at G2 phase at 10 uM after 24 hrs by propidium iodide based flow cytometry (reference value: 20%); type: functional
PC-3 [5] = assay: Disruption of mitochondrial membrane potential in human PC3 cells at 5 uM after 24 hrs by rhodamine-123 based fluorescence assay (reference value: 5%); type: functional
PC-3 [6] = assay: Cell cycle arrest in human PC3 cells assessed as accumulation at sub G1 phase at 5 uM after 24 hrs by propidium iodide based flow cytometry (reference value: 3%); type: functional
PC-3 [7] = assay: Disruption of mitochondrial membrane potential in human PC3 cells at 20 uM after 24 hrs by rhodamine-123 based fluorescence assay (reference value: 5%); type: functional
HUVEC [8] = assay: Antiangiogenic activity in HUVEC assessed as VEGF-induced migration after 24 hrs by wound healing assay; type: functional, cell-based; details: Homo sapiens
HUVEC [9] = assay: Antiangiogenic activity in HUVEC assessed as wound closure level at 20 uM after 24 hrs by wound healing assay (reference value: 100%); type: functional, Homo sapiens
PC-3 [10] = assay: Cell cycle arrest in human PC3 cells assessed as accumulation at sub G1 phase at 10 uM after 24 hrs by propidium iodide based flow cytometry (reference value: 3%); type: functional
[11] = Antiproliferative activity against human MIAPaCa2 cells assessed as cell viability after 48 hrs by MTT assay; type: functional, cell-based; details: MIA PaCa-2, 48 h
HepG2 = assay: Antiproliferative activity against human HepG2 cells assessed as cell viability after 48 hrs by MTT assay; type: functional, cell-based; details: HepG2, 48 h
PC-3 [12] = assay: Cell cycle arrest in human PC3 cells assessed as accumulation at S phase at 10 uM after 24 hrs by propidium iodide based flow cytometry (reference value: 30%); type: functional
PC-3 [13] = assay: Cell cycle arrest in human PC3 cells assessed as accumulation at sub G1 phase at 20 uM after 24 hrs by propidium iodide based flow cytometry (reference value: 3%); type: functional
PC-3 [14] = assay: Disruption of mitochondrial membrane potential in human PC3 cells at 10 uM after 24 hrs by rhodamine-123 based fluorescence assay (reference value: 5%); type: functional
PC-3 [15] = assay: Cell cycle arrest in human PC3 cells assessed as accumulation at sub G1 phase after 24 hrs by propidium iodide based flow cytometry; type: functional
PC-3 [16] = assay: Antiproliferative activity against human PC3 cells assessed as cell viability after 12 hrs by MTT assay; type: functional, cell-based; details: PC-3, 12 h
PC-3 [17] = assay: Induction of apoptosis in human PC3 cells assessed as nuclear condensation after 24 hrs by fluorescence microscopic analysis; type: functional, cell-based
PC-3 [18] = assay: Down regulation of Bcl-2 in human PC3 cells at 10 to 20 uM after 24 hrs by western blot analysis; type: functional, cell-based
PC-3 [19] = assay: Cell cycle arrest in human PC3 cells assessed as accumulation at G2 phase at 20 uM after 24 hrs by propidium iodide based flow cytometry (reference value: 20%); type: functional
PC-3 [20] = assay: Antiangiogenic activity in human PC3 cells assessed as VEGF-induced migration at 5 to 30 uM after 24 hrs by wound healing assay; type: functional, cell-based
PC-3 [21] = assay: Antiproliferative activity against human PC3 cells assessed as cell viability after 48 hrs by MTT assay; type: functional, cell-based; details: PC-3, 48 h
PC-3 [22] = assay: Cell cycle arrest in human PC3 cells assessed as accumulation at G1 phase at 10 uM after 24 hrs by propidium iodide based flow cytometry (reference value: 50%); type: functional
PC-3 [23] = assay: Induction of apoptosis in human PC3 cells assessed as decrease in Bcl2 to Bax ratio at 5 to 20 uM after 24 hrs by western blot analysis (reference value: 5); type: functional
PC-3 [24] = assay: Cell cycle arrest in human PC3 cells assessed as accumulation at G2 phase at 5 uM after 24 hrs by propidium iodide based flow cytometry (reference value: 20%); type: functional
PC-3 [25] = assay: Cell cycle arrest in human PC3 cells assessed as accumulation at G1 phase at 20 uM after 24 hrs by propidium iodide based flow cytometry (reference value: 50%); type: functional
PC-3 [26] = assay: Antiproliferative activity against human PC3 cells assessed as cell viability after 6 hrs by MTT assay; type: functional, cell-based; details: PC-3, 6 h
PC-3 [27] = assay: Cell cycle arrest in human PC3 cells assessed as accumulation at S phase after 24 hrs by propidium iodide based flow cytometry; type: functional
PC-3 [28] = assay: Induction of apoptosis in human PC3 cells assessed as apoptotic bodies after 24 hrs by fluorescence microscopic analysis; type: functional, cell-based
PC-3 [29] = assay: Antiproliferative activity against human PC3 cells assessed as cell viability after 18 hrs by MTT assay; type: functional, cell-based; details: PC-3, 18 h
PC-3 [30] = assay: Down regulation of procaspase-8 expression in human PC3 cells at 5 to 20 uM after 24 hrs by western blot analysis; type: functional, cell-based
MIA PaCa-2 = assay: Antiproliferative activity against human MIAPaCa2 cells assessed as cell viability by MTT assay; type: functional, cell-based; details: TDE = time-dependent effect
PC-3 [31] = assay: Cell cycle arrest in human PC3 cells assessed as accumulation at S phase at 20 uM after 24 hrs by propidium iodide based flow cytometry (reference value: 30%); type: functional
[32] = Up regulation of PARP-1 expression in human PC3 cells at 5 to 20 uM after 24 hrs by western blot analysis; type: functional, cell-based; details: PC-3
PC-3 [33] = assay: Induction of apoptosis in human PC3 cells assessed as translocation of Bax from cytosol to mitochondria at 5 to 20 uM after 24 hrs by western blot analysis; type: functional, cell-based
PC-3 [34] = assay: Induction of apoptosis in human PC3 cells assessed as membrane blebbing after 24 hrs by fluorescence microscopic analysis; type: functional, cell-based

With `CC1(C)[C@@H](OCc2c(Cl)cccc2Cl)CC[C@]2(C)[C@H]3C(=O)C=C4[C@@H]5C[C@@](C)(C(=O)O)CC[C@]5(C)CC[C@@]4(C)[C@]3(C)CC[C@@H]12` as the compound, how does the Activity (PC-3 [1]) read?
Its Activity is 59%.

And the IC50 (PC-3 [2])?
Its IC50 is 15 µM.

And the Activity (PC-3 [3])?
Its Activity is 40%.

And the Activity (PC-3 [4])?
The Activity was 7%.

What about the Activity (PC-3 [5]) of the same compound?
Its Activity is 12%.

And the Activity (PC-3 [6])?
Its Activity is 8%.

And the Activity (PC-3 [7])?
The Activity was 38%.

What about the Activity (HUVEC [8]) of the same compound?
Its Activity is “Active”.

And the Activity (HUVEC [9])?
Its Activity is 20%.

And the Activity (PC-3 [10])?
Its Activity is 12%.

And the IC50 [11]?
Its IC50 is 7 µM.

And the IC50 (HepG2)?
Its IC50 is 19 µM.

And the Activity (PC-3 [12])?
The Activity was 42%.

What about the Activity (PC-3 [13]) of the same compound?
Its Activity is 37%.

And the Activity (PC-3 [14])?
Its Activity is 15%.

And the Activity (PC-3 [15])?
The Activity was “Dose-dependent effect”.

And the IC50 (PC-3 [16])?
Its IC50 is 370 µM.

And the Activity (PC-3 [17])?
The Activity was “Dose-dependent effect”.

What about the Activity (PC-3 [18]) of the same compound?
Its Activity is “Active”.

And the Activity (PC-3 [19])?
Its Activity is 4%.

And the Activity (PC-3 [20])?
The Activity was “Dose-dependent effect”.

And the IC50 (PC-3 [21])?
The IC50 was 6 µM.

What about the Activity (PC-3 [22]) of the same compound?
Its Activity is 51%.

And the Ratio (PC-3 [23])?
Its Ratio is 0.5.

What about the Activity (PC-3 [24]) of the same compound?
The Activity was 1%.

What about the Activity (PC-3 [25]) of the same compound?
The Activity was 44%.

What about the IC50 (PC-3 [26]) of the same compound?
Its IC50 is 400 µM.

What about the Activity (PC-3 [27]) of the same compound?
Its Activity is “Dose-dependent effect”.

What about the Activity (PC-3 [28]) of the same compound?
The Activity was “Dose-dependent effect”.

And the IC50 (PC-3 [29])?
The IC50 was 100 µM.

And the Activity (PC-3 [30])?
The Activity was “Active”.

What about the Activity (MIA PaCa-2) of the same compound?
Its Activity is “tde”.

What about the Activity (PC-3 [31]) of the same compound?
Its Activity is 53%.

What about the Activity [32] of the same compound?
The Activity was “Active”.

And the Activity (PC-3 [33])?
Its Activity is “Active”.

What about the Activity (PC-3 [34]) of the same compound?
Its Activity is “Dose-dependent effect”.
